Measurements as given in patent US10080775B2, “Peptide having skin whitening activity, and use thereof” (CAREGEN CO., LTD., priority 2017, dated 2018).
Peptide text beside a SMILES is read from it.

Test system: melanin-forming cells (B16F10 cell line)
Test: Cytotoxicity test (MTT assay)
Type: cell-based, mouse
Conditions: B16F10, 1 uM to 200 uM, 72 hours, serum-free medium
Protocol: After melanin-forming cells (B16F10 cell line) dispensed in 48-well culture plates were incubated in a 37° C. incubator for 24 hours, the medium for each plate was removed and replaced with serum-free medium, and then the cells were treated with the peptide of the present invention at different concentrations (1, 10, 50, 100, 150, 200 uM). After the cells were incubated for 72 hours, the MTT reagent was added, followed by reaction for 4 hours. Then, the generated formazan was dissolved in DMSO, and the absorbance was measured at 560 nm.

CCCC(CCC)C(=O)N[C@H](C(=O)N[C@@H](Cc1c[nH]c2ccccc12)C(=O)N[C@@H](CO)C(=O)N[C@@H](CC(C)C)C(=O)N[C@@H](CC(=O)O)C(=O)N[C@H](C(=O)N[C@@H](CCC(N)=O)C(=O)N[C@@H](Cc1ccc(O)cc1)C(=O)NCC(=O)NCC(=O)N[C@@H](CCCNC(=N)N)C(=O)NCC(=O)N[C@@H](CC(=O)O)C(=O)O)[C@@H](C)O)[C@@H](C)CC [Valprooyl-Ile-Trp-Ser-Leu-Asp-Thr-Gln-Tyr-Gly-Gly-Arg-Gly-Asp-COOH] (HELM PEPTIDE1{[CCCC(CCC)C(=O)[*:2]].I.W.S.L.D.T.Q.Y.G.G.R.G.D}$$$$V2.0)
cytotoxicity on melanocytes (MTT assay): no cytotoxicity was observed
